test: in vitro; details: human, hela cells, % viability

| SMILES | viability at 28.5 h, 10 µM [%] |
| --- | --- |
| O=C(O)CCc1ccc(-c2ccc(F)cc2)n1NC(=O)c1ccco1 [CBK268853] | 90.7 |
| CS(=O)(=O)N1CCN(c2ccccc2NC(=O)COc2ccc(Cl)cc2)CC1 [CBK268854] | 94.7 |
| NCCCN(Cc1ccco1)C1CCCC1 [CBK268856] | 109 |
| O=C(Cc1ccccc1)N1CCN(S(=O)(=O)N2CCOCC2)CC1 [CBK268857] | 108 |
| O=C(CCCSC1=NC(C(F)(F)F)CC(c2ccco2)N1)Nc1ccc(Cl)c(Cl)c1 (stereo not drawn) [CBK268858] | 88 |
| O=C(O)Cc1ccc(-n2c(S)nnc2-c2ccncc2)cc1 [CBK268860] | 94.9 |
| O=c1[nH]c(CSc2nnc(CCCOc3ccc(Cl)cc3Cl)o2)nc2ccccc12 [CBK268861] | 97.2 |
| Cn1c(NCc2ccco2)nc2c1c(=O)n(Cc1cccc(Br)c1)c(=O)n2C [CBK268863] | 79.8 |
| O=C(NC(=S)Nc1ccc2oc(-c3cncc(Br)c3)nc2c1)c1cc([N+](=O)[O-])ccc1N1CCOCC1 [CBK268864] | 118 |
| Cn1c(=O)oc2cc(S(=O)(=O)N3CCN(C4CCCCC4)CC3)ccc21 [CBK268865] | 107 |
| O=C(O)CCC(=O)Nc1ccc(NC(=O)C2CCCCC2)c(Cl)c1 [CBK268867] | 89.3 |
| CC(C)(C)c1ccc(C(=O)NCCNC(=O)c2nonc2N)cc1 [CBK268869] | 89.5 |
| COc1cccc(CNC23CC4CC(CC(C4)C2)C3)c1OCc1ccccc1 [CBK268873C] | 92 |
| Cn1c(Cc2ccccc2)nnc1SCCC(=O)Nc1ccccc1 [CBK268874] | 91.3 |
| Cc1c(Cl)c([N+](=O)[O-])nn1CCCC(=O)Nc1cc(Br)ccc1O [CBK268875] | 93.1 |
| COc1ccc(-c2nc3ccccc3s2)cc1NC(=O)c1ccc(OCC(C)C)cc1 [CBK268878] | 94.7 |
| COc1ccc(OC)c(NC(=O)CNC(=O)c2ccc(C)cc2)c1 [CBK268881] | 91.5 |
| COc1ccc(Cl)cc1NC(=O)CCCn1cnc([N+](=O)[O-])n1 [CBK268882] | 83.2 |
| Cc1nn2cc(-c3n[nH]cc3[N+](=O)[O-])cnc2c1C(=O)O [CBK268883] | 98.3 |
| COCCCN1C(=O)c2[nH]nc(-c3cc(C)c(C)cc3O)c2C1c1ccc(SC)cc1 (stereo not drawn) [CBK268884] | 89 |

| SMILES | viability at 28.5 h, 10 µM [%] |
| --- | --- |
| O=C(Nc1ccc(NC(=O)c2cc3ccccc3o2)cc1)c1ccc(-c2ccccc2)cc1 [CBK268887] | 107 |
| Cc1ccc(N2C(=O)C(CC(=O)Nc3cccc(F)c3)N(CCc3ccncc3)C2=O)cc1 (stereo not drawn) [CBK268891] | 96.5 |
| Cc1cc(/C=C(/C#N)c2ccc(C(=O)O)cc2)c(C)n1-c1ccc(S(N)(=O)=O)cc1 [CBK268896] | 116 |
| CC(=O)c1cccc(NC(=O)CN(c2cc(Cl)ccc2Cl)S(=O)(=O)c2ccc(C)cc2)c1 [CBK268897] | 90.6 |
| CCOc1ccc(C(=O)NC(=S)Nc2sc(C)c(C)c2C#N)cc1Cl [CBK268900] | 91.8 |
| O=C(Nc1ccc(S(=O)(=O)N2CCCCC2)cc1)c1nc(SCc2ccccc2)ncc1Cl [CBK268901] | 107 |
| COc1ccc(-c2nnc(SCCC(=O)O)n2C)cc1OC [CBK268902] | 98.8 |
| CCOc1ccc(-n2c(SCc3nc(-c4ccccc4C)no3)nnc2-c2ccccc2)cc1 [CBK268910] | 109 |
| CC(=O)c1cccc(NC(=O)CCCn2cc([N+](=O)[O-])cn2)c1 [CBK268911] | 82.8 |
| O=C(CSc1nn2cnnc2s1)Nc1ccc(I)cc1 [CBK268913] | 88.2 |
| CS(=O)(=O)N(CC(=O)Nc1ccc(C(F)(F)F)cc1)Cc1ccc(Cl)cc1 [CBK268915] | 99.7 |
| N#C/C(=C\c1ccc(OCC(=O)O)cc1)C(N)=S [CBK268917] | 102 |
| Cc1cccnc1NC(=O)C(C)n1cc([N+](=O)[O-])cn1 (stereo not drawn) [CBK268918] | 104 |
| Cc1cc(-c2nc3ncccc3o2)ccc1NC(=S)NC(=O)c1cc2ccccc2o1 [CBK268922] | 83.1 |
| O=C(Nc1cc(Oc2ccc(Cl)cc2)cc([N+](=O)[O-])c1)c1cnn2c(C(F)F)cc(C3CC3)nc12 [CBK268925] | 105 |
| Cc1ccc(NC(=O)COc2ccc(/C=C\c3onc(C)c3[N+](=O)[O-])cc2)cc1 [CBK268928] | 88.2 |
| Cc1cc(C)c(NC(=O)CSc2nnc(-c3cccnc3)s2)c([N+](=O)[O-])c1 [CBK268929] | 102 |
| CC1CN(S(=O)(=O)c2ccc(NC(=O)c3nc(SCc4ccccc4)ncc3Cl)cc2)CC(C)O1 (stereo not drawn) [CBK268930] | 89.3 |
| O=S(=O)(N1CCCCC1)N1CCCN(S(=O)(=O)N2CCCCC2)CC1 [CBK268939] | 85.4 |
| Cc1ccc(-c2nc3ccccc3[nH]2)cc1NC(=O)CSc1ccc(Cl)cc1 [CBK268942] | 98.3 |

| SMILES | viability at 28.5 h, 10 µM [%] |
| --- | --- |
| COC(=O)c1cc(-c2cccnc2)[nH]n1 [CBK268945] | 104 |
| CC1CCC(N(CCCN)Cc2ccco2)CC1C (stereo not drawn) [CBK268947] | 95.6 |
| Cn1c(SCCCN2C(=O)c3cccc4cccc(c34)C2=O)nnc1-c1ccncc1 [CBK268951] | 93.1 |
| O=C(Nc1ccc(Cc2ccncc2)cc1)c1ccc(-c2cc3ccccc3oc2=O)cc1 [CBK268952] | 121 |
| COc1cc(/C=C(/C#N)c2ccc(C(=O)O)cc2)cc(Br)c1OCC(=O)O [CBK268956] | 92.3 |
| Cc1nn2cc(-c3n[nH]cc3[N+](=O)[O-])cnc2c1C(N)=O [CBK268957] | 87.4 |
| C=CCn1c(SC(C)C(=O)O)nnc1-c1ccc(OC)cc1 (stereo not drawn) [CBK268958] | 91.1 |
| COC(=O)c1c(NC(=O)Cn2ccc([N+](=O)[O-])n2)sc2c1CCCC2 [CBK268960] | 116 |
| COC(=O)COc1ccc(C2Nc3c(Cl)ccc(C(=O)O)c3C3C=CCC32)cc1 (stereo not drawn) [CBK268961] | 99.9 |
| COc1ccc(Cl)c(Cn2c(NCc3ccccn3)nc3c2c(=O)n(C)c(=O)n3C)c1 [CBK268965] | 97.6 |
| Cc1nn(CC(=O)NCc2ccc(C(=O)O)cc2)c(C)c1[N+](=O)[O-] [CBK268967] | 118 |
| CCSc1ncc(Cl)c(C(=O)N(Cc2cccc(Br)c2)C2CCS(=O)(=O)C2)n1 (stereo not drawn) [CBK268969] | 90.3 |
| Cn1nnnc1SCC(=O)Nc1cccc2nsnc12 [CBK268973] | 101 |
| C=CCNC(=O)CCc1nc(-c2cccc(OC)c2)no1 [CBK268981] | 99.2 |
| CC(=O)Nc1ccc(S(=O)(=O)N2CCN(S(=O)(=O)N3CCCCCC3)CC2)cc1 [CBK268983] | 99.3 |
| Cc1ccc(Nc2nc(N)nc(CN3CCN(Cc4ccc5c(c4)OCO5)CC3)n2)cc1 [CBK268985] | 96.1 |
| CN(C)S(=O)(=O)N1CCN(c2ccc([N+](=O)[O-])c(NC3C4CC5CC(C4)CC3C5)c2)CC1 (stereo not drawn) [CBK268986] | 102 |
| NS(=O)(=O)c1ccc(NC(=O)CSc2cccc3ccccc23)cc1 [CBK268987] | 93.2 |
| O=C(O)c1cc(-n2c(S)nnc2-c2ccncc2)ccc1Cl [CBK268989] | 94.9 |
| COc1ccc(NS(=O)(=O)c2ccc(NC(=S)NC(=O)C(C)(C)C)cc2)cc1 [CBK268990] | 109 |
